What was measured:
[1] = test system: VSV-G-pseudotype virus (pVSV-G); test: microbe, parasite or virus in culture; assay type: cell-based; settings: Vesicular stomatitis virus, read-out: %inh@10 µM (pVSV-G)
[2] = test system: EBOV-GP-Pseudotype Virus (pEBOV)
[3] = test system: wild-type Zaire EBOV Mayinga 1976 strain (EBOV May)
[4] = in vitro; settings: human
[5] = in vitro; settings: chlorocebus sabaeus
[6] = test system: EBOV-GP-Pseudotype Virus (pEBOV); test: microbe, parasite or virus in culture; settings: Zaire ebolavirus, 48 h; for EC50: HeLa, read-out: EC50 (μM) (pEBOV); for inhibition at 10 µM: M-HeLa, read-out: %inh@10 μM (pEBOV)
[7] = test system: wild-type Zaire EBOV Mayinga 1976 strain (EBOV May); test: microbe, parasite or virus in culture; settings: Zaire ebolavirus, Vero C1008, 72 h, read-out: EC50 (μM), replicative EBOV

Q: Which inhibition at 10 µM [1] does the source give for `O=C(CCNCCC1CCN(Cc2ccccc2)CC1)Nn1c2ccccc2c2ccccc21` [Compound 2] here?
A: 10%

Q: And the “SI (pEBOV) (CC50/EC50)” value [2]?
A: 2.87

Q: And the “SI (CC50/EC50), replicative EBOV” value [3]?
A: 9.1

Q: And the CC50 at 24 h [4]?
A: 0.46 µM

Q: What about the CC50 at 24 h [5] of the same compound?
A: 4.75 µM

Q: What about the EC50 [6] of the same compound?
A: 0.16 µM

Q: And the EC50 [7]?
A: 0.52 µM

Q: Which results are given for `CN1CCN(CCC(=O)Nn2c3ccccc3c3ccccc32)CC1` [Compound 3]?
A: inhibition at 10 µM [1]: 10%; SI (pEBOV) (CC50/EC50) [2]: 62.5; CC50 at 24 h [4]: 150 µM; EC50 [6]: 2.4 µM

Q: Which “antiviral activity against pEBOV, in words” value (from here on “antiviral activity”) [2] does the source give for `CN(C)CC(=O)Nn1c2ccccc2c2ccccc21` [Compound 4] here?
A: inactive

Q: What about the inhibition at 10 µM [6] of the same compound?
A: < 75%

Q: With `CN(C)CCC(=O)Nn1c2ccccc2c2ccccc21` [Compound 5] as the compound, how does the “antiviral activity” value [2] read?
A: inactive

Q: What about the inhibition at 10 µM [6] of the same compound?
A: < 75%

Q: Which inhibition at 10 µM [1] does the source give for `O=C(CCN1CCCC1)Nn1c2ccccc2c2ccccc21` [Compound 6] here?
A: 9%

Q: What about the “SI (pEBOV) (CC50/EC50)” value [2] of the same compound?
A: 21.7

Q: What about the CC50 at 24 h [4] of the same compound?
A: 28 µM

Q: And the EC50 [6]?
A: 1.29 µM

Q: Which results are given for `O=C(CCN1CCCCC1)Nn1c2ccccc2c2ccccc21` [Compound 7]?
A: inhibition at 10 µM [1]: 30%; SI (pEBOV) (CC50/EC50) [2]: 1.78; CC50 at 24 h [4]: 5 µM; EC50 [6]: 2.8 µM

Q: For `O=C(CCl)Nn1c2ccccc2c2ccccc21` [Compound 8], which “antiviral activity” value [2] is on record?
A: inactive

Q: And the inhibition at 10 µM [6]?
A: < 75%

Q: With `O=C(CNCCC1CCN(Cc2ccccc2)CC1)NC1c2ccccc2-c2ccccc21` [Compound 9, 2-((2-(1-Benzylpiperidin-4-yl)ethyl)amino)-N-(9H-fluoren-9-yl)acetamide] as the compound, how does the inhibition at 10 µM [1] read?
A: -10%

Q: And the “SI (pEBOV) (CC50/EC50)” value [2]?
A: 93

Q: And the “SI (CC50/EC50), replicative EBOV” value [3]?
A: 134.6

Q: And the CC50 at 24 h [4]?
A: 159 µM

Q: And the CC50 at 24 h [5]?
A: 33.6 µM

Q: And the EC50 [6]?
A: 1.7 µM

Q: And the EC50 [7]?
A: 0.25 µM

Q: For `CN1CCN(CCC(=O)NN(c2ccccc2)c2ccccc2)CC1` [Compound 14, 3-(4-Methylpiperazin-1-yl)-N′,N′-diphenylpropanehydrazide], which inhibition at 10 µM [1] is on record?
A: 2%

Q: What about the “SI (pEBOV) (CC50/EC50)” value [2] of the same compound?
A: 358

Q: And the CC50 [4]?
A: > 100 µM

Q: And the CC50 [5]?
A: > 100 µM

Q: And the EC50 [6]?
A: 0.27 µM

Q: What about the EC50 [7] of the same compound?
A: > 100 µM

Q: With `O=C(CN1CCN(c2ccccc2)CC1)NN(c1ccccc1)c1ccccc1` [Compound 15, N′,N′-Diphenyl-2-(4-phenylpiperazin-1-yl)acetohydrazide] as the compound, how does the CC50 [4] read?
A: > 10 µM

Q: And the EC50 [6]?
A: > 100 µM

Q: What about the inhibition at 10 µM [6] of the same compound?
A: 8%

Q: For `O=C(CCN1CCN(c2ccccc2)CC1)NN(c1ccccc1)c1ccccc1` [Compound 16, N′,N′-Diphenyl-3-(4-phenylpiperazin-1-yl)propanehydrazide], which CC50 [4] is on record?
A: > 10 µM

Q: What about the inhibition at 10 µM [6] of the same compound?
A: 70%

Q: Which results are given for `CCOC(=O)C1CCN(CC(=O)NN(c2ccccc2)c2ccccc2)CC1` [Compound 17, Ethyl 1-(2-(2,2-Diphenylhydrazinyl)-2-oxoethyl)piperidine-4-carboxylate]?
A: CC50 [4]: > 10 µM; inhibition at 10 µM [6]: 47%

Q: Which CC50 [4] does the source give for `CCOC(=O)C1CCN(CCC(=O)NN(c2ccccc2)c2ccccc2)CC1` [Compound 18, Ethyl 1-(3-(2,2-Diphenylhydrazinyl)-3-oxopropyl)piperidine-4-carboxylate] here?
A: > 10 µM

Q: What about the inhibition at 10 µM [6] of the same compound?
A: 24%

Q: Which results are given for `O=C(CCN1CCCCC1)NN(c1ccccc1)c1ccccc1` [Compound 19, N′,N′-Diphenyl-3-(piperidin-1-yl)propanehydrazide]?
A: antiviral activity against pEBOV, in words [2]: inactive; CC50 [4]: > 10 µM; inhibition at 10 µM [6]: 60%

Q: With `O=C(CN1CCOCC1)NN(c1ccccc1)c1ccccc1` [Compound 20, 2-Morpholino-N′,N′-diphenylacetohydrazide] as the compound, how does the CC50 [4] read?
A: > 10 µM

Q: And the inhibition at 10 µM [6]?
A: -1%

Q: For `O=C(CCN1CCOCC1)NN(c1ccccc1)c1ccccc1` [Compound 21, 3-Morpholino-N′,N′-diphenylpropanehydrazide], which CC50 [4] is on record?
A: > 10 µM

Q: What about the inhibition at 10 µM [6] of the same compound?
A: 29%

Q: What does the source list for `O=C(CNCCN1CCOCC1)NN(c1ccccc1)c1ccccc1` [Compound 22, 2-((2-Morpholinoethyl)amino)-N′,N′-diphenylacetohydrazide]?
A: CC50 [4]: > 10 µM; inhibition at 10 µM [6]: 27%

Q: Which CC50 [4] does the source give for `O=C(CCNCCN1CCOCC1)NN(c1ccccc1)c1ccccc1` [Compound 23, 3-((2-Morpholinoethyl)amino)-N′,N′-diphenylpropanehydrazide] here?
A: > 10 µM

Q: What about the inhibition at 10 µM [6] of the same compound?
A: 42%

Q: Which results are given for `O=C(CNCCc1ccccc1)NN(c1ccccc1)c1ccccc1` [Compound 24, 2-(Phenethylamino)-N′,N′-diphenylacetohydrazide]?
A: CC50 [4]: > 10 µM; inhibition at 10 µM [6]: 10%

Q: What does the source list for `O=C(CCNCCc1ccccc1)NN(c1ccccc1)c1ccccc1` [Compound 25, 3-(Phenethylamino)-N′,N′-diphenylpropanehydrazide]?
A: CC50 [4]: > 10 µM; inhibition at 10 µM [6]: 61%

Q: What does the source list for `CCOC(=O)CCCCCCNCC(=O)NN(c1ccccc1)c1ccccc1` [Compound 26, Ethyl 7-((2-(2,2-Diphenylhydrazinyl)-2-oxoethyl)amino)heptanoate]?
A: CC50 [4]: > 10 µM; inhibition at 10 µM [6]: 51%

Q: Which CC50 [4] does the source give for `CCOC(=O)CCCCCCNCCC(=O)NN(c1ccccc1)c1ccccc1` [Compound 27, Ethyl 7-((3-(2,2-Diphenylhydrazinyl)-3-oxopropyl)amino)heptanoate] here?
A: > 10 µM

Q: And the inhibition at 10 µM [6]?
A: 53%

Q: With `CCCCCC(=O)NN(c1ccccc1)c1ccccc1` [Compound 28, N′,N′-Diphenylhexanehydrazide] as the compound, how does the CC50 [4] read?
A: > 10 µM

Q: And the inhibition at 10 µM [6]?
A: 67%

Q: With `O=C(Cc1ccc(Br)cc1)NN(c1ccccc1)c1ccccc1` [Compound 29, 2-(4-Bromophenyl)-N′,N′-diphenylacetohydrazide] as the compound, how does the CC50 [4] read?
A: > 10 µM

Q: And the inhibition at 10 µM [6]?
A: 73%

Q: Which inhibition at 10 µM [1] does the source give for `O=C(CNCCC1CCN(Cc2ccccc2)CC1)NN(Cc1ccccc1)c1ccccc1` [Compound 30, N′-Benzyl-2-((2-(1-benzylpiperidin-4-yl)ethyl)amino)-N′-phenylacetohydrazide] here?
A: -25%

Q: And the “SI (pEBOV) (CC50/EC50)” value [2]?
A: 62

Q: And the CC50 at 24 h [4]?
A: 106 µM

Q: What about the EC50 [6] of the same compound?
A: 1.05 µM

Q: Which results are given for `O=C(CCNCCC1CCN(Cc2ccccc2)CC1)NN(Cc1ccccc1)c1ccccc1` [Compound 31, N′-Benzyl-3-((2-(1-benzylpiperidin-4-yl)ethyl)amino)-N′-phenylpropanehydrazide]?
A: antiviral activity against pEBOV, in words [2]: inactive; CC50 [4]: > 10 µM; inhibition at 10 µM [6]: < 75%

Q: What does the source list for `O=C(CCNCCN1CCN(Cc2ccccc2)CC1)NN(Cc1ccccc1)c1ccccc1` [Compound 32, N′-Benzyl-3-((2-(4-benzylpiperazin-1-yl)ethyl)amino)-N′-phenylpropanehydrazide]?
A: inhibition at 10 µM [1]: -36%; SI (pEBOV) (CC50/EC50) [2]: 19.2; CC50 at 24 h [4]: 70 µM; EC50 [6]: 3.63 µM

Q: With `CN1CCN(CC(=O)NN(Cc2ccccc2)c2ccccc2)CC1` [Compound 33] as the compound, how does the “antiviral activity” value [2] read?
A: inactive

Q: And the CC50 [4]?
A: > 100 µM

Q: What about the CC50 [5] of the same compound?
A: > 100 µM

Q: And the inhibition at 10 µM [6]?
A: 13%

Q: And the EC50 [7]?
A: > 100 µM

Q: Which results are given for `CN1CCN(CCC(=O)NN(Cc2ccccc2)c2ccccc2)CC1` [Compound 34, N′-Benzyl-3-(4-methylpiperazin-1-yl)-N′-phenylpropanehydrazide]?
A: antiviral activity against pEBOV, in words [2]: inactive; CC50 [4]: > 10 µM; inhibition at 10 µM [6]: < 75%

Q: Which results are given for `CCOC(=O)C1CCN(CC(=O)NN(Cc2ccccc2)c2ccccc2)CC1` [Compound 35, Ethyl 1-(2-(2-Benzyl-2-phenylhydrazineyl)-2-oxoethyl)piperidine-4-carboxylate]?
A: CC50 [4]: > 100 µM; inhibition at 10 µM [6]: 15%

Q: Which CC50 [4] does the source give for `COC(=O)C1CCN(CC(=O)NN(Cc2ccccc2)c2ccccc2)CC1` [Compound 36, Methyl 1-(2-(2-Benzyl-2-phenylhydrazineyl)-2-oxoethyl)piperidine-4-carboxylate] here?
A: > 100 µM

Q: What about the inhibition at 10 µM [6] of the same compound?
A: 24%

Q: Which results are given for `CCOC(=O)CCCCCCNCC(=O)NN(Cc1ccccc1)c1ccccc1` [Compound 37, Ethyl 7-((2-(2-Benzyl-2-phenylhydrazineyl)-2-oxoethyl)amino)heptanoate]?
A: CC50 [4]: > 100 µM; inhibition at 10 µM [6]: 30%

Q: What does the source list for `CCCCCC(=O)NN(Cc1ccccc1)c1ccccc1` [Compound 38, N′-Benzyl-N′-phenylhexanehydrazide]?
A: CC50 [4]: > 100 µM; inhibition at 10 µM [6]: 18%

Q: For `O=C(Cc1ccc(Br)cc1)NN(Cc1ccccc1)c1ccccc1` [Compound 39, N′-Benzyl-2-(4-bromophenyl)-N′-phenylacetohydrazide], which CC50 [4] is on record?
A: > 100 µM

Q: And the inhibition at 10 µM [6]?
A: 32%

Q: For `O=C(CNCCC1CCN(Cc2ccccc2)CC1)N(c1ccccc1)c1ccccc1` [Compound 40, 2-((2-(1-Benzylpiperidin-4-yl)ethyl)amino)-N,N-diphenylacetamide], which CC50 at 24 h [4] is on record?
A: 100 µM

Q: And the inhibition at 10 µM [6]?
A: 8%

Q: With `CCOC(=O)C1CCN(CC(=O)N(c2ccccc2)c2ccccc2)CC1` [Compound 41, Ethyl 1-(2-(Diphenylamino)-2-oxoethyl)piperidine-4-carboxylate] as the compound, how does the CC50 [4] read?
A: > 100 µM

Q: What about the inhibition at 10 µM [6] of the same compound?
A: 40%

Q: Which results are given for `O=C(CNCCc1ccccc1)N(c1ccccc1)c1ccccc1` [Compound 42, 2-(Phenethylamino)-N,N-diphenylacetamide]?
A: CC50 [4]: > 100 µM; inhibition at 10 µM [6]: 38%

Q: With `CCOC(=O)CCCCCCNCC(=O)N(c1ccccc1)c1ccccc1` [Compound 43, Ethyl 7-((2-(Diphenylamino)-2-oxoethyl)amino)heptanoate] as the compound, how does the CC50 [4] read?
A: > 100 µM

Q: And the inhibition at 10 µM [6]?
A: 35%

Q: Which CC50 [4] does the source give for `CCCCCC(=O)N(c1ccccc1)c1ccccc1` [Compound 44, N,N-Diphenylhexanamide] here?
A: > 100 µM

Q: And the inhibition at 10 µM [6]?
A: 32%

Q: Which CC50 [4] does the source give for `O=C(Cc1ccc(Br)cc1)N(c1ccccc1)c1ccccc1` [Compound 45, 2-(4-Bromophenyl)-N,N-diphenylacetamide] here?
A: > 100 µM

Q: And the inhibition at 10 µM [6]?
A: 36%

Reference: article PMC10150359 (Journal of Medicinal Chemistry, 2023)
